In US7476691B2, “Sulfamate benzothiophene derivatives as steroid sulfatase inhibitors” (Laboratoire Theramex, priority 2003, dated 2009):

Experiments:
prepubescent female rats = assay: Residual estrogenic activity in vivo (uterotrophic assay); settings: prepubescent female rats, oral, 1 mg/rat/day for 3 days
Description: These compounds were checked for residual estrogenic activity in vivo in the classical uterotrophic assay after 3-day administration by oral route in prepubescent female rats.
Prepubescent female rats were orally treated at 1 mg/rat/day for 3 days. On the day following the last treatment, uteri were removed and wet weight were recorded.
The results are expressed as % of stimulation of uterus weight in comparison with controls.

estrone sulfatase = target: T1, estrone sulfatase (Rattus norvegicus, UniProt P15589); assay: Estrone sulfatase activity in the uterus of treated rats; type: in vivo
T1 construct: uteri were thawed, weighed and homogenized; from tissue; host or cells: uterus of animals dosed orally (ex vivo homogenate supernatant)
T1 sequence (P15589 20-577): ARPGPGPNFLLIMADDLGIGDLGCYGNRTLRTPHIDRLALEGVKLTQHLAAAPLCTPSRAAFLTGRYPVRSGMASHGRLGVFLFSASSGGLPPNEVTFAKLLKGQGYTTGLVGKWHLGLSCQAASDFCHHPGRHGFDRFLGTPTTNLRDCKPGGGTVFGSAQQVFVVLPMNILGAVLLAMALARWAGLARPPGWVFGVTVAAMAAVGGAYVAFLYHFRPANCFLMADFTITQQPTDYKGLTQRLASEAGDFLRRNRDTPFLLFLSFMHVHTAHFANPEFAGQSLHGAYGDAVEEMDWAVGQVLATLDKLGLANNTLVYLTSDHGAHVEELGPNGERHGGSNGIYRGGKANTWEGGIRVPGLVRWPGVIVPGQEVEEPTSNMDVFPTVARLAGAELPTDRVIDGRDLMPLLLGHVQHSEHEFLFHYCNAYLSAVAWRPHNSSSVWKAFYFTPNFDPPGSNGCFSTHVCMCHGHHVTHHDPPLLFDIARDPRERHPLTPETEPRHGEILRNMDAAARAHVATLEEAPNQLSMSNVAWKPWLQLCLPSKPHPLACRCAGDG
Description: (§1) In this study, a last administration was performed 24 hours before the necropsy for E1S and E2 serum levels assays. The uteri were removed, freed of adjacent tissue, wet weighed and immediately deep frozen until the determination of sulfatase activity.
Estrone sulfatase activity was measured according to the method described by Purohit et al., with slight modifications. Briefly, uteri were thawed, weighed and homogenized. Aliquots of the supernatant were treated with dextran-coated charcoal and assayed for sulfatase. E1S activity was assessed after 30 min of incubation with 5 nM of ^3H-E1S and 20 μM of unlabelled E1S as substrate. Radioactivity was measured by LSC.
Estrone sulfatase activity was expressed as pmol/h/mg protein and reported as percentage of inhibition versus E1S.

MCF-7 cells = assay: Hormono-dependent induced MCF-7 xenografts: volume and weight; type: in vivo, mice; settings: oral 0.1 mg/kg/day for 6 weeks
Description: (§2) MCF-7 cells, derived from human breast adenocarcinoma, were injected subcutaneously in ovariectomized athymic nude mice supplemented with estrone sulfate (pellets 0.5 mg/90 day release). Xenograft volumes were determined once weekly. When tumor volumes reached a significant increase, 6,6,7 COUMATE and Ex 55 were orally administered at 0.1 mg/kg/day for 6 weeks.
(§3) Xenografts were measured, removed, weighed, and deep frozen until the determination of steroid sulfatase activity.

steroid sulfatase = target: T2, steroid sulfatase (Homo sapiens, UniProt P08842); assay: Xenograft steroid sulfatase activity; type: in vivo, mouse; settings: oral 0.1 mg/kg/day for 6 weeks
T2 construct: from tissue; host or cells: MCF-7 xenograft tumour removed from athymic nude mice
T2 sequence (P08842 22-583): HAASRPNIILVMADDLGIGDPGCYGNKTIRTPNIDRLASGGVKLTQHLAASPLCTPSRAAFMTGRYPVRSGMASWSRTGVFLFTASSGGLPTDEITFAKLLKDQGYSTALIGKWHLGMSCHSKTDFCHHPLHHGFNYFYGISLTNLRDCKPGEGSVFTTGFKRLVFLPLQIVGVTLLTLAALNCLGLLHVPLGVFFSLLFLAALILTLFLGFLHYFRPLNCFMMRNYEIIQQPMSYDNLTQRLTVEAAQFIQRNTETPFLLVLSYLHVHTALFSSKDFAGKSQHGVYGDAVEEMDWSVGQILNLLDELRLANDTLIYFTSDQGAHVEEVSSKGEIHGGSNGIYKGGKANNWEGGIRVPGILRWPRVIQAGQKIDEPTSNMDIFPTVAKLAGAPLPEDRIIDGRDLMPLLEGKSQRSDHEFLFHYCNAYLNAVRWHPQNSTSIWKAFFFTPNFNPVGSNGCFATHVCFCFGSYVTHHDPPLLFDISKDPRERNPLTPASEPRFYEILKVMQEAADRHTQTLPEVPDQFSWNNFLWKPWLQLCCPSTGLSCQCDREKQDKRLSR
Description: as §2, §3

[1] = Serum estrogen levels (E1S and E2) in treated rats; type: in vivo, rat; settings: 24 h after last administration
Description: as §1
E1S and E2 levels were determined according to the supplier's standard method (DSL, Webster, Tex., USA).

[2] = tested on: ovariectomized Wistar female rats; assay: Antiuterotrophic/antisulfatase activity: inhibition of E1S stimulated uterus weight; type: in vivo, rat
Description: A short model, derived from Purohit's method, was developed for the evaluation in vivo of nonestrogenic steroid sulfatase inhibitors.
Wistar female rats were ovariectomized and left to rest for 4 weeks. Prior to treatment, the absence of cyclicity was checked by vaginal smears.
Animals were supplemented with estrone sulfate (E1S) at 50 μg/kg/day s.c., alone or combined with oral administration of potential sulfatase inhibitors, at 1 mg/kg/day for 4 days. The uteri were removed, freed of adjacent tissue and wet weighed.
The results are expressed as % of inhibition of the E1S induced stimulation.
The activity of Ex 55 on E1S stimulated uterus weight was evaluated in relation to the standard inhibitor 6,6,7 COUMATE from 0.03 mg/kg/day to 1 mg/kg/day p.o.
as §1

[3] = MCF-7 xenografts, nude mice with E1S pellet

**Q.** What does the source list for `NS(=O)(=O)Oc1ccc2c3c(c(=O)oc2c1)CCCCC3` [6,6,7-COUMATE, reference compound]?
**A.** % stimulation of uterus weight in comparison with controls (prepubescent female rats): 3%; Estrone sulfatase activity in the uterus, percentage of inhibition versus E1S (estrone sulfatase; 0.03 mg/kg/day p.o.): 36%; Estrone sulfatase activity in the uterus, percentage of inhibition versus E1S (estrone sulfatase; 0.1 mg/kg/day p.o.): 78%; Estrone sulfatase activity in the uterus, percentage of inhibition versus E1S (estrone sulfatase; 0.3 mg/kg/day p.o.): 96%; Estrone sulfatase activity in the uterus, percentage of inhibition versus E1S (estrone sulfatase; 1 mg/kg/day p.o.): 97%; Xenograft volume after 6 week treatment (MCF-7 cells; [3]): 1854 ± 243 mm^3; Xenograft weight after 6 week treatment (MCF-7 cells; [3]): 1467 ± 191 mg; inhibition of the E1S induced stimulation (xenograft volume) (MCF-7 cells): did not inhibit; inhibition of xenograft weight (MCF-7 cells): did not inhibit; Xenograft steroid sulfatase activity (steroid sulfatase; MCF-7 xenografts): 540 ± 54 pmol/h/mg protein; inhibition at 0.1 mg/kg/day (steroid sulfatase; read-out: inhibition of intratumoral steroid sulfatase activity): 67%; E1S levels (serum) ([1]; 0.03 mg/kg/day p.o.): 24 ± 3.1 ng/mL; E2 levels (serum) ([1]; 0.03 mg/kg/day p.o.): 33 ± 5.8 pg/mL; E1S levels (serum) ([1]; 0.1 mg/kg/day p.o.): 26 ± 2.6 ng/mL; E2 levels (serum) ([1]; 0.1 mg/kg/day p.o.): 28 ± 2.5 pg/mL; E1S levels (serum) ([1]; 0.3 mg/kg/day p.o.): 59 ± 6.4 ng/mL; E2 levels (serum) ([1]; 0.3 mg/kg/day p.o.): 18 ± 1.1 pg/mL; E1S levels (serum) ([1]; 1 mg/kg/day p.o.): 80 ± 5.7 ng/mL; E2 levels (serum) ([1]; 1 mg/kg/day p.o.): 16 ± 1.5 pg/mL; Inhibition of E1S stimulated uterus weight ([2]; 0.03 mg/kg/day p.o.): 0%; Inhibition of E1S stimulated uterus weight ([2]; 0.1 mg/kg/day p.o.): 13%; Inhibition of E1S stimulated uterus weight ([2]; 0.3 mg/kg/day p.o.): 52%; Inhibition of E1S stimulated uterus weight ([2]; 1 mg/kg/day p.o.): 84%; % inhibition of the E1S induced stimulation (uterus weight) ([2]; ovariectomized rats, E1S 50 μg/kg/day s.c., compound oral 1 mg/kg/day for 4 days): 86%
